We go through 10 compounds from patent publication US20190225650A1, “PEPTIDOMIMETIC MACROCYCLES AND USE THEREOF IN REGULATING HIF1ALPHA” (AILERON THERAPEUTICS, INC., priority 2013, published 2019).

Bridge positions count the residues as written; N and C are the ends. Square brackets hold non-standard residues; d marks the D form. Peptide text beside a SMILES is read from it. S5 = C=CCCC[C@](C)(N)C(=O)O; Nle = CCCC[C@H](N)C(=O)O

The subject of the assay is HRE-bla ME-180 cells. The assay is described as follows: Reporter gene assay (HRE-bla ME-180 HIF reporter, GeneBLAzer). The class given is cell-based, human. The note with it: for EC50: 24 hour normoxia. As to the method: The following reagents were used:
• DMEM+GutaMAX: (#10569044, Invitrogen) • Black clear bottom plates: (#3603, Costar) • HRE-bla-ME-180 cell line: (#K1644, Invitrogen) • Gene-Blazer reagent & protocol: (#K1096, Invitrogen) • Plate reader: Biotek Synergy 2 • Chetomin: (C9623, Sigma)
4 hours prior to experiment: HRE-bla ME-180 cells were seeded at a density of 20,000 cells/well in a volume of 180 μl in black clear bottom 96-well plates. 180 μl of assay medium was added to the cell-free control wells. Incubation was conducted at 37° C., 5% CO2 for 4 hours.
Diluted chetomin was used as a positive control. Chetomin was diluted in 100% DMSO to a 10 mM stock concentration. A 1 mM stock of chetomin was prepared in 100% DMSO. Then the 1 mM chetomin stock was serially diluted in 1:4 in 100% DMSO. Finally, 50, 12.5, 3.125, 0.78, 0.2, 0.05 μM stock of chetomin in 5% DMSO/water were prepared by adding 114 μL water+6 μL chetomin in DMSO.
Test peptides were diluted before use. The test peptides were diluted in 100% DMSO to a 10 mM stock concentration. Then each 10 mM peptide stock was diluted in 1:3 in 100% DMSO. Finally, 300, 100, 33.3, 11.1, 3.7, 1.2 μM stock of each peptide in 5% DMSO/water were prepared by adding 129.2 μL water+4 μL peptide in DMSO.
20 μl of peptide, chetomin dilution, or DMSO/water control were added to the appropriate wells of a plate to achieve 200 μL final volumes in 0.3% DMSO/media. The plate was first incubated for 18-20 hours in normoxia incubator (37° C. in humidified 5% CO2, 20% O2 atmosphere). Then the plate was transferred to hypoxia incubator for 24 hours (37° C. in humidified 5% CO2, 1% O2 atmosphere)
6× LiveBLAzer™-FRET B/G (CCF4-AM) Substrate Mixture was prepared according to CellSensor™ HRE-bla ME-180 Cell-based Assay Protocol (Invitrogen) and added into each well. Solution A (CCF4-AM) was reconstituted in DMSO to a working concentration of 1 mM, divided in aliquots, and stored at −20° C. The 6× LiveBLAzer-FRET B/G (CCF4-AM) Substrate mixture was prepared by mixing 6 μl of Solution A, 60 μl of Solution B, and 934 μl Solution C.
The plates were removed from incubator and equilibrated to RT for a few minutes. Then 20 μl of 6× Substrate mixture was added to each well. The plates were then incubated at room temperature for 3 hr in the dark and read at 409 Ex/460Em and 409Ex/530Em using the “GeneBlazer-Tungsten with export” program on the Synergy 2.
The average percentage of maximum inhibition was obtained by comparing the peptide treated cells (30 μM) to DMSO vehicle control treated cells. The results are shown in the columns “ME-180 HIF Reporter EC50 (μM) −24 hr normoxia” and “18 h Avg % max inhibition at top conc (HIF Rptr-24 hrsnormoxia) (μM)” of Table 6.

As for `CC[C@H](C)[C@H](NC(=O)[C@H](Cc1ccccc1)NC(C)=O)C(=O)N[C@@H](CC(=O)O)C(=O)N[C@@H](CCC(=O)O)C(=O)N[C@@H](CCC(=O)O)C(=O)N[C@H](C(=O)N[C@@H](CC(C)C)C(=O)N[C@@H](C)C(=O)N[C@@]1(C)CCCC=CCCC[C@@](C)(C(=O)N[C@@H](C)C(=O)N[C@@H](C)C(=O)N[C@@H](CC(C)C)C(=O)N[C@@H](CC(=O)O)C(=O)N[C@@H](CCCNC(=N)N)C(N)=O)NC(=O)[C@H]([C@@H](C)CC)NC(=O)[C@H](C(C)C)NC(=O)[C@H](CC(C)C)NC1=O)C(C)C` [SP-28] (Ac-FIDEEVLA[S5]LVI[S5]AALDR-NH2; staple 9-13), the “18 h Avg % max inhibition at top conc (HIF Rptr-24 hrs normoxia) (μM)” value (“18 h Avg % max inhibition at top conc” for short) is “++++ (≥50: ++++)” and the EC50 lay in the range of 15 to 30 µM.

On to `CCCC[C@H](NC(=O)[C@H](CC(C)C)NC(=O)[C@@H](NC(=O)[C@H](CCC(=O)O)NC(=O)[C@H](CCC(=O)O)NC(=O)[C@H](CC(=O)O)NC(=O)[C@@H](NC(=O)[C@H](Cc1ccccc1)NC(=O)[C@H](CC(=O)O)NC(C)=O)[C@@H](C)CC)C(C)C)C(=O)N[C@@]1(C)CCCC=CCCC[C@@](C)(C(=O)N[C@@H](CCCC)C(=O)N[C@@H](C)C(=O)N[C@@H](CC(C)C)C(=O)N[C@@H](CC(=O)O)C(=O)N[C@@H](CCCNC(=N)N)C(=O)N[C@H](C(N)=O)[C@@H](C)CC)NC(=O)[C@H]([C@@H](C)CC)NC(=O)[C@H](C(C)C)NC(=O)[C@H](CC(C)C)NC1=O` [SP-29] (Ac-DFIDEEVL[Nle][S5]LVI[S5][Nle]ALDRI-NH2; staple 10-14), for which the “18 h Avg % max inhibition at top conc” value is listed as “++ (≤10 but <25: ++)” and the EC50 was > 30 µM.

Turning to `CCCC[C@H](NC(=O)[C@H](CC(C)C)NC(=O)[C@@H](NC(=O)[C@H](CCC(=O)O)NC(=O)[C@H](CCC(=O)O)NC(=O)[C@H](CC(=O)O)NC(=O)[C@@H](NC(=O)[C@H](CCC(=O)O)NC(C)=O)[C@@H](C)CC)C(C)C)C(=O)N[C@@]1(C)CCCC=CCCC[C@@](C)(C(=O)N[C@@H](CCCC)C(=O)N[C@@H](C)C(=O)N[C@@H](CC(C)C)C(=O)N[C@@H](CC(=O)O)C(=O)N[C@@H](CCCNC(=N)N)C(=O)N[C@H](C(N)=O)[C@@H](C)CC)NC(=O)[C@H]([C@@H](C)CC)NC(=O)[C@H](C(C)C)NC(=O)[C@H](CC(C)C)NC1=O` [SP-30] (Ac-EIDEEVL[Nle][S5]LVI[S5][Nle]ALDRI-NH2; staple 9-13), the “18 h Avg % max inhibition at top conc” value is reported as “++ (≤10 but <25: ++)” and the half-maximal effective concentration (EC50) is > 30 µM.

As for `CCCC[C@H](NC(=O)[C@H](CC(C)C)NC(=O)[C@@H](NC(=O)[C@H](CCC(=O)O)NC(=O)[C@H](CCC(=O)O)NC(=O)[C@H](CC(=O)O)NC(=O)[C@H](CCC(=O)O)NC(=O)[C@H](Cc1ccccc1)NC(C)=O)C(C)C)C(=O)N[C@@]1(C)CCCC=CCCC[C@@](C)(C(=O)N[C@@H](CCCC)C(=O)N[C@@H](C)C(=O)N[C@@H](CC(C)C)C(=O)N[C@@H](CC(=O)O)C(=O)N[C@@H](CCCNC(=N)N)C(=O)N[C@H](C(N)=O)[C@@H](C)CC)NC(=O)[C@H]([C@@H](C)CC)NC(=O)[C@H](C(C)C)NC(=O)[C@H](CC(C)C)NC1=O` [SP-31] (Ac-FEDEEVL[Nle][S5]LVI[S5][Nle]ALDRI-NH2; staple 9-13), the “18 h Avg % max inhibition at top conc” value was “+ (<10: +)” and the EC50 is > 30 µM.

As for `CCCC[C@H](NC(=O)[C@H](CC(C)C)NC(=O)[C@H](CC(=O)O)NC(=O)[C@H](CCC(=O)O)NC(=O)[C@H](CCC(=O)O)NC(=O)[C@H](CC(=O)O)NC(=O)[C@@H](NC(=O)[C@H](Cc1ccccc1)NC(C)=O)[C@@H](C)CC)C(=O)N[C@@]1(C)CCCC=CCCC[C@@](C)(C(=O)N[C@@H](CCCC)C(=O)N[C@@H](C)C(=O)N[C@@H](CC(C)C)C(=O)N[C@@H](CC(=O)O)C(=O)N[C@@H](CCCNC(=N)N)C(=O)N[C@H](C(N)=O)[C@@H](C)CC)NC(=O)[C@H]([C@@H](C)CC)NC(=O)[C@H](C(C)C)NC(=O)[C@H](CC(C)C)NC1=O` [SP-32] (Ac-FIDEEDL[Nle][S5]LVI[S5][Nle]ALDRI-NH2; staple 9-13), the “18 h Avg % max inhibition at top conc” value is “+++ (≤25 but <50: +++)” and the EC50 fell in the range of 15 to 30 µM.

In the case of `CCCC[C@H](NC(=O)[C@H](CCC(=O)O)NC(=O)[C@@H](NC(=O)[C@H](CCC(=O)O)NC(=O)[C@H](CCC(=O)O)NC(=O)[C@H](CC(=O)O)NC(=O)[C@@H](NC(=O)[C@H](Cc1ccccc1)NC(C)=O)[C@@H](C)CC)C(C)C)C(=O)N[C@@]1(C)CCCC=CCCC[C@@](C)(C(=O)N[C@@H](CCCC)C(=O)N[C@@H](C)C(=O)N[C@@H](CC(C)C)C(=O)N[C@@H](CC(=O)O)C(=O)N[C@@H](CCCNC(=N)N)C(=O)N[C@H](C(N)=O)[C@@H](C)CC)NC(=O)[C@H]([C@@H](C)CC)NC(=O)[C@H](C(C)C)NC(=O)[C@H](CC(C)C)NC1=O` [SP-33] (Ac-FIDEEVE[Nle][S5]LVI[S5][Nle]ALDRI-NH2; staple 9-13), the “18 h Avg % max inhibition at top conc” value is reported as “+++ (≤25 but <50: +++)” and the EC50 was > 30 µM.

Consider `CCCC[C@H](NC(=O)[C@]1(C)CCCC=CCCC[C@](C)(NC(=O)[C@H](CC(=O)O)NC(=O)[C@H](CC(C)C)NC(=O)[C@@H](NC(=O)[C@H](CCC(=O)O)NC(=O)[C@H](CCC(=O)O)NC(=O)[C@H](CC(=O)O)NC(=O)[C@@H](NC(=O)[C@H](Cc2ccccc2)NC(C)=O)[C@@H](C)CC)C(C)C)C(=O)N[C@@H](CC(C)C)C(=O)N[C@@H](C(C)C)C(=O)N[C@@H]([C@@H](C)CC)C(=O)N1)C(=O)N[C@@H](C)C(=O)N[C@@H](CC(C)C)C(=O)N[C@@H](CC(=O)O)C(=O)N[C@@H](CCCNC(=N)N)C(=O)N[C@H](C(N)=O)[C@@H](C)CC` [SP-34] (Ac-FIDEEVLD[S5]LVI[S5][Nle]ALDRI-NH2; staple 9-13), for which the “18 h Avg % max inhibition at top conc” value is listed as “++++ (≥50: ++++)” and the 50% effective concentration (EC50) lay in the range of 5 to 15 µM.

On to `CCCC[C@H](NC(=O)[C@H](CC(C)C)NC(=O)[C@@H](NC(=O)[C@H](CCC(=O)O)NC(=O)[C@H](CCC(=O)O)NC(=O)[C@H](CC(=O)O)NC(=O)[C@@H](NC(=O)[C@H](Cc1ccccc1)NC(C)=O)[C@@H](C)CC)C(C)C)C(=O)N[C@@]1(C)CCCC=CCCC[C@@](C)(C(=O)N[C@@H](CCCC)C(=O)N[C@@H](C)C(=O)N[C@@H](CC(C)C)C(=O)N[C@@H](CC(=O)O)C(=O)N[C@@H](CCCNC(=N)N)C(=O)N[C@H](C(N)=O)[C@@H](C)CC)NC(=O)[C@H]([C@@H](C)CC)NC(=O)[C@H](C(C)C)NC(=O)[C@H](CC(=O)O)NC1=O` [SP-35] (Ac-FIDEEVL[Nle][S5]DVI[S5][Nle]ALDRI-NH2; staple 9-13), for which the “18 h Avg % max inhibition at top conc” value is on record as “+ (<10: +)” and the EC50 is > 30 µM.

Regarding `CCCC[C@H](NC(=O)[C@H](CC(C)C)NC(=O)[C@@H](NC(=O)[C@H](CCC(=O)O)NC(=O)[C@H](CCC(=O)O)NC(=O)[C@H](CC(=O)O)NC(=O)[C@@H](NC(=O)[C@H](Cc1ccccc1)NC(C)=O)[C@@H](C)CC)C(C)C)C(=O)N[C@@]1(C)CCCC=CCCC[C@@](C)(C(=O)N[C@@H](CCCC)C(=O)N[C@@H](C)C(=O)N[C@@H](CC(C)C)C(=O)N[C@@H](CC(=O)O)C(=O)N[C@@H](CCCNC(=N)N)C(=O)N[C@H](C(N)=O)[C@@H](C)CC)NC(=O)[C@H]([C@@H](C)CC)NC(=O)[C@H](CCC(=O)O)NC(=O)[C@H](CC(C)C)NC1=O` [SP-36] (Ac-FIDEEVL[Nle][S5]LEI[S5][Nle]ALDRI-NH2; staple 9-13), the “18 h Avg % max inhibition at top conc” value is given as “+ (<10: +)” and the EC50 was > 30 µM.

For the compound `CCCC[C@H](NC(=O)[C@H](CC(C)C)NC(=O)[C@@H](NC(=O)[C@H](CCC(=O)O)NC(=O)[C@H](CCC(=O)O)NC(=O)[C@H](CC(=O)O)NC(=O)[C@@H](NC(=O)[C@H](Cc1ccccc1)NC(C)=O)[C@@H](C)CC)C(C)C)C(=O)N[C@@]1(C)CCCC=CCCC[C@@](C)(C(=O)N[C@@H](CCCC)C(=O)N[C@@H](C)C(=O)N[C@@H](CC(C)C)C(=O)N[C@@H](CC(=O)O)C(=O)N[C@@H](CCCNC(=N)N)C(=O)N[C@H](C(N)=O)[C@@H](C)CC)NC(=O)[C@H](CCC(=O)O)NC(=O)[C@H](C(C)C)NC(=O)[C@H](CC(C)C)NC1=O` [SP-37] (Ac-FIDEEVL[Nle][S5]LVE[S5][Nle]ALDRI-NH2; staple 9-13), the “18 h Avg % max inhibition at top conc” value is “+ (<10: +)” and the concentration for a half-maximal effect (EC50) was > 30 µM.
